Source: US20050079152A1, “Methods of elicit, enhance and sustain immune responses against MHC class I-restricted epitopes, for prophylactic or therapeutic purposes” (priority 2003, published 2005)

Tested on: SSX241-49 epitope specific T cells
Experiment: SSX2 tetramer staining in immunized mice
Type: in vivo
Settings: for SSX2 antigen specificity, % of the available CD8 T cells (tetramer): entrained with pCBP plasmid, amplified with peptide analogue; for cross-reactivity with T cells specific for the SSX241-49 epitope: mouse, in vivo
Excerpt: These analogues are cross-reactive with T cells specific for the SSX241-49 epitope. These examples illustrate that the entrain-and-amplify protocol can elicit a SSX2 antigen specificity that approaches 80% of the available CD8 T cells. The pCBP plasmid and principles of its design are disclosed in U.S. patent application Ser. No. 10/292,413 (Pub. No. 20030228634 A1) entitled EXPRESSION VECTORS ENCODING EPITOPES OF TARGET-ASSOCIATED ANTIGENS AND METHODS FOR THEIR DESIGN, which is hereby incorporated by reference in its entirety. Additional methodology, compositions, peptides, and peptide analogues are disclosed in U.S. Provisional Application No. ______, (Attorney Docket MANNK.038PR), filed on the same date as the instant application, entitled “SSX-2 PEPTIDE ANALOGS;” which is incorporated herein by reference in its entirety. Further methodology, compositions, peptides., and peptide analogues are disclosed in U.S. Provisional Application No. ______, (Attorney Docket MANNK.039PR), filed on the same date as the instant application, entitled “NY-ESO PEPTIDE ANALOGS;” which is incorporated herein by reference in its entirety.

Substance	SSX2 antigen specificity, % of the available CD8 T cells (tetramer) [%]	cross-reactivity with T cells specific for the SSX241-49 epitope
SSX241-49 K41F: K41F peptide analogue of SSX2-derived epitope KASEKIFYV (SSX2 41-49) (FASEKIFYV)	~80	cross-reactive
K41Y: K41Y peptide analogue of SSX2-derived epitope KASEKIFYV (SSX2 41-49) (YASEKIFYV)	~80	cross-reactive
